In patent US11135224B2, “Methods of sensitizing estrogen receptor positive (ER+) breast cancer cells to endocrine therapy” (New York University, priority 2018, dated 2021):

System: RUNX2 protein
Test: RUNX2 protein immunoblot after CGP57380
Format: cell-based, human
Details: TamS and TamR cells, treated for 6 hours vs untreated
Method: The average of three studies is shown. The immunoblot is representative of three independent studies. […] Equal amounts of RNA were quantified by RT-qPCR and normalized to GAPDH using the −ΔΔCt method. An average of three studies is shown. […] Equal protein amounts were immunoblotted as shown. eEF2 was used as a loading control. […] Cells were treated with DMSO and 1 μM4-OHT and silenced for Runx2 or nonsilencing (NS). The results of three independent experiments are shown. […] Lines represent validated and predicted interactions. […] (**)P<0.01; (***)P<0.001 by t-test.
Immunoblot Studies: In brief, cells were lysed in NP-40 buffer (50 mM HEPES, pH 7.0, 150 mM NaCl, 2 mM EDTA, 25 mM NaF, 25 mM β-glycerophosphate, 2 mM Na3VO4, 1% IGEPAL, and Complete Mini protease inhibitor cocktail tablet+/−EDTA; Roche) or RIPA lysis buffer (1% Triton X-100, 1% sodium deoxycholate, 0.1% SDS, 150 mM NaCl, 50 mM Tris, pH 7.4, 2 mM Na3VO4, 25 mM β-glycerophosphate, 15 mM NaF, and complete protease inhibitor mix; Roche) and lysate cleared by centrifugation at 13,000 rpm for 10 minutes at 4° C. Lysate protein concentration was determined for each sample using BCA assay. […] Quantitation was performed by determination of the integrated density of the bands using ImageJ software.
The biological functions of mRNAs identified as highly eIF4E-dependent in tamoxifen-resistant cells were next assessed. […]

For `Nc1ncnc2n[nH]c(Nc3ccc(F)cc3)c12` [CGP57380], the RUNX2 protein levels was “reduced more than threefold”.
